Measurements from US20240156836A1, “METHODS OF TREATING TE[…]” (priority 2018, published 2024).

What was measured:
[1] = Dose titration concordance analysis (C6 vs Cavg) in hypogonadal men treated with oral TU; format: in vivo
Text: One of the goals of this study was to determine whether the T concentration in blood samples collected into Plain tubes (yielding serum) can be used for making dose titration decisions. In previous studies, dose titration decisions were based on T concentrations in NaF-EDTA plasma.
The goal of dose-titration in men treated with oral TU is to bring the testosterone Cavg into the eugonadal range. Because titration decisions based on testosterone Cavg are not practical in real world clinical setting, single sample T concentrations can be used as surrogates of Cavg. Concordance analysis estimates how well dose titration based on two different measures (e.g., Cavg v. C6) work in guiding dose titration. […] However, to determine total concordance, effective off-diagonal titration also must be determined. Effective off-diagonal titration can be estimated for the following reasons. […] Second, the titration boundaries (425 to 970 ng/dL) fall within the eugonadal boundaries (300 to 1100 ng/dL), and the eugonadal range is wide (3.5 fold) compared to the largest dose increment (33%) or decrement (25%). This means that the dose increments/decrements employed can allow movement within the eugonadal range (e.g. increasing the dose of someone with a Cavg of 400 ng/dL will raise the Cavg to a maximum of 532 ng/dL [400×1.33]). Similarly, when titration decisions based on C6 are different from those based on Cavg, the outcome will often be a Cavg in the eugonadal range. For example, when a patient's C6 is less than 425 ng/dL (indicating a dose increase is required), but whose Cavg is 600 ng/dL (indicating no titration), the impact of titrating based on C6 is that the Cavg will increase but remain in the eugonadal range. The largest dose increase will result in a 33% increase in exposure which, in this case, will raise the Cavg to 798 ng/dL. Therefore, despite titration based on C6, this patient's Cavg is not likely to rise above the upper boundary of the eugonadal range. Thus, the titration decision based on C6 is effectively concordant with that based on Cavg, since both titration decisions will result in a patient with a Cavg in the eugonadal range. Selected cells in Table 3 indicate a patient's Cavg that would result in effective off-diagonal titration. Therefore, when comparing the effectiveness of dose-titration decisions based on C6 and Cavg, both concordance (on-diagonal agreement between C6 and Cavg) and effective off-diagonal agreement must be considered) [i.e., total concordance (percent of patients treated with oral TU who fall into given concordance boxes) is defined as the sum of on-diagonal and effective off-diagonal concordance (see area in Table 3 defined by heavy line). In the example presented, the C6 value is a serum value derived from a measured NaF-EDTA plasma value and a conversion factor that enables the conversion of NaF-EDTA plasma data to be converted to an equivalent serum data.
These reflect an on-diagonal concordance of 75% and 63% and an effective off-diagonal titration decision of 24% and 36% for Visit 2 and Visit 4b, respectively. Therefore, dose titration based on C6 can effectively adjust a patient's oral TU dose such that their Cavg is in the eugonadal range.

[2] = Description: Testosterone undecanoate is metabolized into testosterone. Its degradation in whole blood into testosterone has been studied in conditions typically used in clinical trials.
Prior to discharge from the clinical facility, the subjects will be instructed to take 396 mg TU by mouth immediately prior to their dinner meal on Day 1, then twice daily on Days 2-6 immediately prior to their breakfast and dinner meals, and on Day 7 in the morning, immediately prior to their breakfast meal.
Subjects will return to the Clinic on Day 7 in the late afternoon (before dinner) with their study medication. Upon arrival at the clinic, their study drug will be counted to determine compliance during Day 1 through Day 7 post-AM dose. They will then be administered the study drug 396 mg TU by mouth immediately prior to a dinner meal (containing 30 g fat) which will be provided. Subjects will be instructed to consume the dinner in approximately 20 minutes. Subjects will remain in the unit overnight.
On the 8th day, 5 hrs after their AM meal, blood is collected in plain, EDTA and NaF-EDTA tubes. The plain tubes sit at room temperature (RT). The EDTA and NaF-EDTA tubes are placed on ice.
Samples will be collected into multiple Plain, EDTA and NaF-EDTA tubes. The Plain tube will be incubated at RT to allow blood clotting, as recommended by Clinical and Laboratory Standards Institute (CLSI 2010). […]

CCCCCCCCCCC(=O)O[C@H]1CC[C@H]2[C@@H]3CCC4=CC(=O)CC[C@]4(C)[C@H]3CC[C@]12C [TU, testosterone undecanoate]
percent of patients ([1]; Visit 2, C6 425-970 ng/dL, Cavg 350-800 ng/dL): 15.2% | percent of patients ([1]; Visit 2, C6 425-970 ng/dL, Cavg <350 ng/dL): 5.4% | percent of patients ([1]; Visit 2, C6 425-970 ng/dL, Cavg >800 ng/dL): 2% | percent of patients ([1]; Visit 2, C6 425-970 ng/dL, Total): 22.6% | percent of patients ([1]; Visit 2, C6 <425 ng/dL, Cavg 350-800 ng/dL): 13.9% | percent of patients ([1]; Visit 2, C6 <425 ng/dL, Cavg <350 ng/dL): 59.4% | percent of patients ([1]; Visit 2, C6 <425 ng/dL, Cavg >800 ng/dL): 0% | percent of patients ([1]; Visit 2, C6 <425 ng/dL, Total): 73.3% | percent of patients ([1]; Visit 2, C6 >970 ng/dL, Cavg 350-800 ng/dL): 4.2% | percent of patients ([1]; Visit 2, C6 >970 ng/dL, Cavg <350 ng/dL): 0% | percent of patients ([1]; Visit 2, C6 >970 ng/dL, Cavg >800 ng/dL): 0.6% | percent of patients ([1]; Visit 2, C6 >970 ng/dL, Total): 4.8% | percent of patients ([1]; Visit 2, Total, Cavg 350-800 ng/dL): 33.3% | percent of patients ([1]; Visit 2, Total, Cavg <350 ng/dL): 64.8% | percent of patients ([1]; Visit 2, Total, Cavg >800 ng/dL): 2.6% | percent of patients ([1]; Visit 4b, C6 425-970 ng/dL, Cavg 350-800 ng/dL): 25% | percent of patients ([1]; Visit 4b, C6 425-970 ng/dL, Cavg <350 ng/dL): 10% | percent of patients ([1]; Visit 4b, C6 425-970 ng/dL, Cavg >800 ng/dL): 0.6% | percent of patients ([1]; Visit 4b, C6 425-970 ng/dL, Total): 35.6% | percent of patients ([1]; Visit 4b, C6 <425 ng/dL, Cavg 350-800 ng/dL): 21.8% | percent of patients ([1]; Visit 4b, C6 <425 ng/dL, Cavg <350 ng/dL): 37.5% | percent of patients ([1]; Visit 4b, C6 <425 ng/dL, Cavg >800 ng/dL): 0% | percent of patients ([1]; Visit 4b, C6 <425 ng/dL, Total): 59.3% | percent of patients ([1]; Visit 4b, C6 >970 ng/dL, Cavg 350-800 ng/dL): 4.3% | percent of patients ([1]; Visit 4b, C6 >970 ng/dL, Cavg <350 ng/dL): 0% | percent of patients ([1]; Visit 4b, C6 >970 ng/dL, Cavg >800 ng/dL): 0.6% | percent of patients ([1]; Visit 4b, C6 >970 ng/dL, Total): 4.9% | percent of patients ([1]; Visit 4b, Total, Cavg 350-800 ng/dL): 51.1% | percent of patients ([1]; Visit 4b, Total, Cavg <350 ng/dL): 47.5% | percent of patients ([1]; Visit 4b, Total, Cavg >800 ng/dL): 1.2% | testosterone exposure versus dose ([1]; men treated with oral TU): dose proportional | degradation of TU in whole blood into testosterone [2]: degrades extensively to testosterone
